These results are taken from patent US20200023001A1, “GlycoFix (Structurally And Functionally Repaired Endothelial Glycocalyx)” (Northeastern University, priority 2018, published 2020).

The test system of the assay is RFPEC glycocalyx (adsorbed BSA). Briefly: Whole glycocalyx thickness and coverage by BSA immunofluorescence (Example 2). Type of assay: cell-based, rat. To be noted: Hep III 2 h then 16 h, with or without 59 μg/mL HS. How it is done:
RFPEC Culture. A rat fat pad endothelial cell (RFPEC) line^37 was utilized, originally isolated from rat epididymal fat pads by Dr. Mia Thi of Albert Einstein College of Medicine (Bronx, N.Y., USA). RFPECs were selected for their ability to naturally express a robust glycocalyx.^38 These ECs were cultured in tissue culture flasks at 37° C. and 5% CO2 in a humidified environment with Dulbecco's Modified Eagle's Medium (DMEM) supplemented with 10% fetal bovine serum (FBS) and 1% penicillin-streptomycin, all purchased from Thermo Fisher Scientific (Waltham, Mass., USA). For 3-(4,5-dimethylthiazol-2-yl)-5-(3-carboxymethoxyphenyl)-2-(4-sulfophenyl)-2H-tetrazolium (MTS) assays (Sigma-Aldrich Co., St Louis, Mo., USA), RFPECs were seeded at 3.7×10^4 cells/cm^2 in tissue culture-treated, 96-well plates (Falcon; Thermo Fisher Scientific) and imaged on a SpectraMax M3 plate reader to show cell viability and metabolic activity. For confocal imaging, RFPECs were seeded onto 12-mm diameter round glass cover slips (Thermo Fisher Scientific) at 1×10^4 cells/cm^2 in tissue culture-treated six-well plates (Falcon; Thermo Fisher Scientific). […]
RFPEC glycocalyx treatments. […] The red fluorescence detected from conjugated Alexa Fluor 647 was attributed to AuNP within the RFPEC monolayers (details are given in the “Confocal imaging and analysis” section). […]

heparan sulfate [HS]: the “whole glycocalyx (BSA) coverage of the EC layer” value came to 75.2%+4.0%. For the same substance, the “whole glycocalyx (BSA) thickness” value (mean±SEM) is given as 2.41±0.3 μm.
